Assay [1] concerns MKN45 (RCB1001) human gastric tumor cell-derived xenograft (CDX) model. As to the kind of experiment: Anti-tumor activity in MKN45 gastric mouse xenograft (CDX) model (Example 8). The assay is classed as in vivo. As to conditions: Compound A 10 mg/kg oral once per day. Here is the method: (§1) All mouse studies were approved by the Institutional Animal Care and Use Committee (IACUC) based on guidelines from the National Institutes of Health (NIH). Mice were maintained under pathogen-free conditions, and food and water were provided ad libitum.
(§2) The anti-tumor effect of Compound A and irinotecan hydrochloride as single-agents or in combination was assessed in the MKN45 (RCB1001) human gastric tumor cell-derived xenograft (CDX) model. MKN45 was expanded in RPMI1640 with 10% fetal bovine serum. Cells were free of mycoplasma and authenticated by STR profiling, and ten million cells in log growth phase were resuspended in Hanks Balanced Salt Solution containing 50% Matrigel and implanted subcutaneously into the flank of each recipient female Crl:NU-Foxn1nu mouse. Mice were housed in microisolator cages with corn cob bedding with additional enrichment consisting of sterile nesting material (Innovive) and Bio-huts (Bio-Serv). Water (Innovive) and diet (Teklad Global 19% Protein Extruded Diet 2919, Irradiated) were provided ad libitum. The environment was maintained on a 12-hour light cycle at approximately 68-72° F. and 40-60% relative humidity.
(§3) Tumor Volume (TV) was calculated using the following formula: TV (mm^3)=(width×width×length)/2. Tumor growth inhibition (TGI) was calculated by [(TV controlfinal−TV treatedfinal)/(TV controlfinal−TV controlinitial)×100]. TV was analyzed for statistical significance utilizing GraphPad Prism version 10.2.2. Repeated Measures 2-Way ANOVA with Dunnet's Multiple Comparisons was utilized, and P-values were derived from data collected on the date of Vehicle group termination and were considered statistically significant if less than 0.05.
Mean tumor volume at dosing start was approximately 190 mm^3, with six mice randomized to each treatment group. Mice were dosed orally, once per day, with Vehicle, Compound A at 10 mg/kg, or dosed for 3 consecutive days followed by 4 days holiday by intraperitoneal (IP) injection of Compound B at 5 mg/kg or 10 mg/kg, or combination of Compound A and Compound B. The vehicle group was a combination of Vehicle A (for Compound A, 0.5% 400 cps methylcellulose with 0.5% Tween-80 in sterile water) and Vehicle B (for irinotecan hydrochloride, Saline).

The subject of assay [2] is LMSU (RCB1062) human gastric tumor cell-derived xenograft (CDX) models. As to the kind of experiment: Anti-tumor activity in LMSU gastric mouse xenograft (CDX) model (Example 9). The assay is classed as in vivo. As to conditions: Compound A 10 mg/kg oral once per day. How it is done:
as §1
as §2, with “LMSU (RCB1062)” for “MKN45 (RCB1001)”, “models. LMSU” for “model. MKN45”, “HamF10” for “RPMI1640”
as §3
Mean tumor volume at dosing start was approximately 185 mm^3, with seven mice randomized to each treatment group. Mice were dosed orally, once per day, with Vehicle, Compound A at 10 mg/kg, or dosed for 3 consecutive days followed by 4 days holiday by intraperitoneal (IP) injection of Compound B at 5 mg/kg or 10 mg/kg, or combination of Compound A and Compound B. The vehicle group was a combination of Vehicle A (for Compound A, 0.5% 400 cps methylcellulose with 0.5% Tween-80 in sterile water) and Vehicle B (for irinotecan hydrochloride, Saline).

The test system of assay [3] is RT112/84 human bladder tumor cell-derived xenograft (CDX) model. In words: Anti-tumor activity in RT112/84 mouse xenograft (CDX) model (Example 7). Format: in vivo. As to conditions: Compound A 10 mg/kg oral once per day. How it is done:
as §1
The anti-tumor effect of Compound A and irinotecan hydrochloride as single-agents or in combination was assessed in the RT112/84 human bladder tumor cell-derived xenograft (CDX) model. Cells were expanded in RPMI-1640 (Gibco, Catalog Number 11875093) with 10% fetal bovine serum. These cells were free of mycoplasma and authenticated by STR profiling. Five million cells in log growth phase were resuspended in Hanks Balanced Salt Solution containing 50% Matrigel and implanted subcutaneously into the flank of each recipient female Crl:NU-Foxnlnu mouse. Mice were housed in microisolator cages with corn cob bedding with additional enrichment consisting of sterile nesting material (Innovive) and Bio-huts (Bio-Serv). Water (Innovive) and diet (Teklad Global 19% Protein Extruded Diet 2919, Irradiated) were provided ad libitum. The environment was maintained on a 12-hour light cycle at approximately 68-72° F. and 40-60% relative humidity.
as §3, with “10.0.3.” for “10.2.2.”, “Tukey's” for “Dunnet's”, “Day 14 (date” for “the date”, “termination)” for “termination”, “0.05. Tumor regression was calculated by using the percent change in tumor volume from the final tumor volume measurement from Day 73 when compared to the initial tumor volume from Day 1. Tumor regression was defined as reduced TV on Day 73 compared to Day 1. Tumor regression rate was defined as the percentage of animals per group with tumor regression.” for “0.05.”
Mean tumor volume at dosing start was approximately 249 mm^3, with ten mice randomized to each treatment group. Mice were dosed orally, once per day, with Vehicle, Compound A at 10 mg/kg, or dosed for 3 consecutive days followed by 4 days holiday by intraperitoneal (IP) injection of Compound B at 5 mg/kg, or combination of Compound A and Compound B. The vehicle group was a combination of Vehicle A (for Compound A, 0.5% 400 cps methylcellulose with 0.5% Tween-80 in sterile water) and Vehicle B (for irinotecan hydrochloride, Saline).

For assay [4], the system named is SKGT4. In words: 10-day proliferation screen with Compound A pre-treatment (Example 3). Format: cell-based. As to conditions: read-out: Growth IC50.

Results on two compounds are retold here after patent publication US20260294915A1, “COMBINATION THERAPY COMPRISING A MAT2A INHIBITOR AND A TOPOISOMERASE INHIBITOR, A SPLICING INHIBITOR SULFONAMIDE, OR A KIF18 INHIBITOR” (IDEAYA BIOSCIENCES, INC., priority 2023, published 2026).

Like-named read-outs stand apart in the source and are kept apart here.

On to `Nc1nc(=O)n(-c2ccccc2Cl)c2nc(C(F)(F)F)ccc12` [Compound A], for which, in assay [1], the “Day 25 TGI” value turned out to be 56% and the “Tumor Regression Rate on Day 25” value is 0%. For the same compound, in assay [1] (initial TV 191, vehicle 1396), the “Day 25 TV (mean)” value was found to be 726 mm^3. The TGI in assay [1] (irinotecan 5 or 10 mg/kg IP 3 days on/4 days off) amounted to 56%. In addition, in assay [2], the “Day 11 TGI” value is reported as −6%, the “TGI” value is “no significant TGI” and the “Tumor Regression Rate on Day 11” value is 0%. Besides, the “Day 11 TV (mean)” value in assay [2] (initial TV 186, vehicle 1018) came out at 1069 mm^3. In assay [3], the “Day 14 TGI” value amounted to 53%. In addition, the “Day 14 TV (mean)” value in assay [3] (initial TV 249, vehicle 1069) is listed as 632 mm^3. Moreover, in assay [3] (irinotecan 5 mg/kg IP 3 days on/4 days off), the TGI was determined as 53%.

In the case of `NS(=O)(=O)c1ccc(S(=O)(=O)Nc2cccc3c(Cl)c[nH]c23)cc1` [Indisulam, N-(3-chloro-1H-indol-7-yl)benzene-1,4-disulfonamide], the half-inhibitory concentration (IC50) in assay [4] (SKGT4, Cmpd A pre-treatment 150 nM) amounted to 0.516 µM; in assay [4] (SKGT4, DMSO pre-treatment), 1.06 µM.
